According to patent US20030055065A1, “Tricyclic amide and urea compounds useful for inhibition of G-protein function and for treatment of proliferative diseases” (priority 1993, published 2003):

Each compound was assayed against T1, farnesyl protein transferase (FPT), partially purified from rat brain (Rattus norvegicus, UniProt Q02293+Q04631) (assay: Inhibition of farnesyl protein transferase (transfer of [3H]farnesyl to Ras-CVLS)). Conditions: (1.3) μM.
T1 construct: were partially purified from rat brain by ammonium sulfate fractionation followed by Q-Sepharose
T1 sequence (Q02293 whole entry, one chain of several): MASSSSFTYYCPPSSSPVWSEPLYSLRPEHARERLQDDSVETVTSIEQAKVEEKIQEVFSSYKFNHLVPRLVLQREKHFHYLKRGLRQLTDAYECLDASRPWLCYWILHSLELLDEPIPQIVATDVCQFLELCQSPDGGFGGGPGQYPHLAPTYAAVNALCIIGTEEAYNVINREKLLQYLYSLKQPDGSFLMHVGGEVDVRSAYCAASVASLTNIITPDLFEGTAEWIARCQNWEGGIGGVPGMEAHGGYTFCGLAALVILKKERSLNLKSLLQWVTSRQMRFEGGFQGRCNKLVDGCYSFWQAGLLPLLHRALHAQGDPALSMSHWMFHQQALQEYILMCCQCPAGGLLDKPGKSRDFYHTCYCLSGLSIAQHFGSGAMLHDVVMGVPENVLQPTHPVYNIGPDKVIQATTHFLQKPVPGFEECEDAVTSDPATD
Format: biochemical
Method: 1. In vitro enzyme assays: Inhibition of farnesyl protein transferase and geranylgeranyl protein transferase.
Human farnesyl protein transferase was also expressed in E. coli, using cDNA clones encoding both the α and β subunits. […] Human farnesyl protein transferase was partially-purified from the soluble protein fraction of E. coli as described above. […] Two forms of val^12-Ha-Ras protein were prepared as substrates for these enzymes, differing in their carboxy terminal sequence. One form terminated in cysteine-valine-leucine-serine (Ras-CVLS) the other in cystein-valine-leucine-leucine (Ras-CVLL). Ras-CVLS is a substrate for the farnesyl protein transferase while Ras-CVLL is a substrate for geranylgeranyl protein transferase I. The cDNAs encoding these proteins were constructed so that the proteins contain an amino-terminal extension of 6 histidine residues. Both proteins were expressed in Escherichia coli and purified using metal chelate affinity chromatography. The radiolabelled isoprenyl pyrophosphate substrates, [^3H]farnesyl pyrophosphate and [3H]geranylgeranyl pyrophosphate, were purchased from DuPont/New England Nuclear.
The reaction was allowed to proceed for 30 minutes at room temperature and then stopped with 0.5 ml of 4% sodium dodecyl sulfate (SDS) followed by 0.5 ml of cold 30% trichloracetic acid (TCA). Samples were allowed to sit on ice for 45 minutes and precipitated Ras protein was then collected on GF/C filter paper mats using a Brandel cell harvester. […] Percent inhibition was calculated relative to the DMSO vehicle control.

SMILES	FPT inhibition at the concentration in parentheses
CN1CCC(CC(=O)N2CCC(=C3c4ccc(Cl)cc4CCc4cc(F)cnc43)CC2)CC1 [Example 411-R]	29 (1.30)

Same assay, conditions: FPT IC50, enzyme inhibition

SMILES	IC50
O=C(Cc1ccc[n+]([O-])c1)N1CCN([C@H]2c3ccc(Cl)cc3CCc3cccnc32)CC1 [Example 425-G]	2.3 µM

Same assay, conditions: Ras-CVLS farnesylation, partially purified rat brain FPT; read-out: FPT IC50

SMILES	IC50
O=C(Cc1cccnc1)N1CCC(=C2c3ccc(Cl)cc3CC(O)c3cccnc32)CC1 (stereo not drawn) [Example 280]	23 µM
CC(=O)N1CCC(=C2c3ccc(Cl)cc3CCc3cc(Cl)cnc32)CC1 [Example 62]	7.8 µM
O=C(c1cccnc1)N1CCC(=C2c3ccc(Cl)cc3CCc3cccnc32)CC1 [Example 26]	6.3 µM
O=C(c1ccc(NS(=O)(=O)C(F)(F)F)cc1)N1CCC(=C2c3ccc(Cl)cc3CCc3cccnc32)CC1 [Example 111]	8.5 µM
O=C(/C=C/c1ccncc1)N1CCC(=C2c3ccc(Cl)cc3CCc3cccnc32)CC1 [Example 99]	4.4 µM
NC1CCC(C(=O)N2CCC(=C3c4ccc(Cl)cc4CCc4cccnc43)CC2)CC1 (stereo not drawn) [Example 105]	5 µM
C=CC(=O)N1CCC(=C2c3ccc(Cl)cc3CCc3cccnc32)CC1 [Example 115]	14.2 µM
O=C(c1ccccc1)N1CCC(=C2c3ccc(Cl)cc3CCc3cccnc32)CC1 [Example 54]	5.3 µM
O=C(Cc1ccncc1)N1CCC(=C2c3ccncc3CCc3cc(Cl)ccc32)CC1 [Example 5.39]	2.3 µM
O=C(C1CCNCC1)N1CCC(=C2c3ccc(Cl)cc3CCc3cccnc32)CC1 [Example 100]	4.5 µM
CCOC(=O)C(=O)N1CCC(=C2c3ccc(Cl)cc3CCc3cccnc32)CC1 [Example 56]	7.9 µM
O=C(c1c[nH]c2ccccc12)N1CCC(=C2c3ccc(Cl)cc3CCc3cccnc32)CC1 [Example 30]	5.7 µM
CC(=O)Nc1cnc2c(c1)CCc1cc(Cl)ccc1C2=C1CCN(C(=O)Cc2ccncc2)CC1 [Example 403]	1000 µM
CC(C)(C)CC(=O)N1CCC(=C2c3ccc(Cl)cc3CCc3cccnc32)CC1 [Example 57]	9.8 µM
O=C(Cc1ccncc1)N1CCC(=C2c3ccc(Cl)cc3CCc3ccc[n+]([O-])c32)CC1 [Example 230]	2.06 µM
O=C(c1cn[nH]c1)N1CCC(=C2c3ccc(Cl)cc3CCc3cccnc32)CC1 [Example 18]	4.9 µM
COc1cc(C(=O)N2CCC(=C3c4ccc(Cl)cc4CCc4cccnc43)CC2)cc(OC)c1O [Example 24]	6.2 µM
CC(=O)N1CCCC(C(=O)N2CCN(C3c4ccc(Cl)cc4CCc4cccnc43)CC2)C1 (stereo not drawn) [Example 194]	4.3 µM
Cc1ccc2c(O)c(C(=O)N3CCC(=C4c5ccc(Cl)cc5CCc5cccnc54)CC3)cnc2n1 [Example 20]	5.2 µM
CN1CCC(CC(=O)N2CCC(=C3c4ccc(Cl)cc4CCc4c3n(C)cc(Br)c4=O)CC2)CC1 [Example 410-M]	~12 µM
CC(=O)N1CCC(=C2c3cc4ccccc4cc3CCc3cccnc32)CC1 [Example 71A]	17.6 µM

SMILES	IC50
C#CC(=O)N1CCC(=C2c3ccc(Cl)cc3CCc3cccnc32)CC1 [Example 9]	4 µM
O=C(Cc1c(O)cccc1O)N1CCC(=C2c3ccc(Cl)cc3CCc3cccnc32)CC1 [Example 125]	10.3 µM
CN(C)c1ccc(C(=O)N2CCC(=C3c4ccc(Cl)cc4CCc4cccnc43)CC2)cc1 [Example 17]	4.8 µM
O=C(Cc1csc2ccccc12)N1CCC(=C2c3ccc(Cl)cc3CCc3cccnc32)CC1 [Example 221]	3.71 µM
CC(C)(C(=O)N1CCC(=C2c3ccc(Cl)cc3CCc3cc(Br)cnc32)CC1)c1ccc[n+]([O-])c1 [Example 360]	0.59 µM
Cc1cc(C(=O)N2CCC(=C3c4ccc(Cl)cc4CCc4cccnc43)CC2)cc(Cl)[n+]1[O-] [Example 37]	11.4 µM
O=C(N[C@@H]1C[C@H]1c1ccccc1)N1CCC(=C2c3ccc(Cl)cc3CCc3cccnc32)CC1 [Example 101]	4.6 µM
CC(C)(C(=O)N1CCC(=C2c3ccc(Cl)cc3CCc3cc(Br)cnc32)CC1)c1ccncc1 [Example 361]	0.32 µM
O=C(c1ccccn1)N1CCC(=C2c3ccc(Cl)cc3CCc3cccnc32)CC1 [Example 29]	8 µM
O=C(Cc1cccnc1)N1CCC(=C2c3ccc(Cl)cc3C(O)Cc3cccnc32)CC1 (stereo not drawn) [Example 284]	4.3 µM
O=C(Cc1cccnc1)N1CCC(C2c3ccc(Cl)cc3C=Cc3c(Cl)ccnc32)CC1 (stereo not drawn) [Example 273]	0.84 µM
O=C(Cn1cncn1)N1CCC(=C2c3ccc(Cl)cc3CCc3cc(Br)cnc32)CC1 [Example 412]	0.52 µM
O=C(c1cc[nH]c1)N1CCC(=C2c3ccc(Cl)cc3CCc3cccnc32)CC1 [Example 16]	4.8 µM
O=C(C1CCSCC1)N1CCC(=C2c3ccc(Cl)cc3CCc3cccnc32)CC1 [Example 103]	4.6 µM
C[C@H](N)C(=O)N1CCC(CC(=O)N2CCN(C3c4ccc(Cl)cc4CCc4cccnc43)CC2)CC1 (stereo partly drawn) [Example 433]	2.5 µM
N#CCC(=O)N1CCC(=C2c3ccc(Cl)cc3CCc3cc(Br)cnc32)CC1 [Example 400-A]	2.6 µM
O=C(Cc1ccncc1)N1CCC(=C2c3ccc(Cl)cc3CC(O)c3cccnc32)CC1 (stereo not drawn) [Example 282]	4.5 µM
O=C(c1cc[nH]c(=O)c1)N1CCC(=C2c3ccc(Cl)cc3CCc3cccnc32)CC1 [Example 25]	6.25 µM
CC(C)(C(=O)N1CCC(=C2c3ccc(Cl)cc3CCc3cccnc32)CC1)c1ccncc1 [Example 299]	1.34 µM
O=C(Cc1cccnc1)N1CCC(=C2c3ccc(Cl)cc3CCc3cc(O)cnc32)CC1 [Example 240]	3.12 µM

Same assay, conditions: at 10 μM

SMILES	FPT inhibition
O=C([C@H](Cc1ccccc1)N1C(=O)c2ccccc2C1=O)N1CCN(C2c3ccc(Cl)cc3CCc3cccnc32)CC1 (stereo partly drawn) [Example 216]	34% @

Same assay, conditions: at 11 μM

SMILES	FPT inhibition
COc1cc(C(=O)N2CCC(=C3c4ccc(Cl)cc4CCc4cccnc43)CC2)cc(OC)c1OC [Example 119]	41% at 11 μM
CC(C)(C)OC(=O)N1CCC(C(=O)N2CCN(C3c4ccc(Cl)cc4CCc4cccnc43)CC2)CC1 (stereo not drawn) [Example 202]	20% @

Same assay, conditions: at 12 μM

SMILES	FPT inhibition
O=C(c1c[nH]c2ccccc12)N1CCN(C2c3ccc(Cl)cc3CCc3cccnc32)CC1 (stereo not drawn) [Example 368]	14 @12 μM %
O=C(c1cc[n+]([O-])cc1)N1CCC(=C2c3ccccc3CCc3cc(Cl)ccc32)CC1 [Example 146]	45% at 12 μM

Same assay, conditions: at 14.1 μM

SMILES	FPT inhibition
CC(=O)N1CCC(=C2c3ccc(Cl)cc3CCc3cc(C(C)(C)C)c[n+]([O-])c32)CC1 [Example 133]	16% at 14.1 μM

Same assay, conditions: at 14.2 μM

SMILES	FPT inhibition
COc1cc[n+]([O-])c2c1CCc1cc(Cl)ccc1C2=C1CCN(C(C)=O)CC1 [Example 74A]	25% at 14.2 μM

Same assay, conditions: at 15 μM

SMILES	FPT inhibition
CC(=O)N1CCC(=C2c3ccc(Cl)cc3CCc3c(C)cc[n+]([O-])c32)CC1 [Example 132]	22% at 15 μM

Same assay, conditions: at 15.5 μM

SMILES	FPT inhibition
CC(=O)N1CCC(=C2c3cc(Cl)c(Cl)cc3CCc3cccnc32)CC1 [Example 71C]	38% at 15.5 μM

Same assay, conditions: at 16.9 μM

SMILES	FPT inhibition
CC(=O)N1CCC(C2c3ccc(Cl)cc3CCc3cccnc32)CC1 (stereo not drawn) [Example 150]	38% at 16.9 μM

Same assay, conditions: at 46 μM

SMILES	FPT inhibition
O=C(c1cc[n+]([O-])cc1)N1CCC(=C2c3ccncc3CCc3cc(Cl)ccc32)CC1 [Example 144a]	47% at 46 μM

Same assay, conditions: at 50 μM

SMILES	FPT inhibition
CC(=O)N1CCC(=C2c3ccc(Cl)cc3CCc3cc(C(C)(C)C)cnc32)CC1 [Example 66]	22% at 50 μM
CC(=O)N1CCC(=C2c3ccc(Cl)cc3CCc3ncccc32)CC1 [Example 144]	30% at 50 μM

Same assay, conditions: enzyme inhibition; read-out: FPT IC50

SMILES	IC50
O=C(Cc1cc[n+]([O-])cc1)N1CCC(=C2c3ccc(Cl)cc3C=Cc3cccnc32)CC1 [Example 417-A]	0.85 µM
O=C(Cc1ccc[n+]([O-])c1)N1CCC(=C2c3ccc(Cl)cc3CCc3cc(Cl)cnc32)CC1 [Example 411-U]	1.12 µM
CN1CCC(CC(=O)N2CCC(=C3c4ccc(Cl)cc4CCc4cc(F)cnc43)CC2)CC1 [Example 411-R]	~4 µM
CN1CCCC(CC(=O)N2CCN([C@H]3c4ccc(Cl)cc4CCc4cccnc43)CC2)C1 (stereo partly drawn) [Example 425-S]	0.6 µM
COC(=O)N1CCCC(CC(=O)N2CCN(C3c4ccc(Cl)cc4CCc4cccnc43)CC2)C1 (stereo not drawn) [Example 430-A]	7 µM
CCCNC(=O)N1CCC(CC(=O)N2CCN(C3c4ccc(Cl)cc4CCc4cccnc43)CC2)CC1 (stereo not drawn) [Example 431-C]	0.88 µM
O=C(Cc1ccncc1)N1CCC(=C2c3ccc(Cl)cc3CCc3cc(Cl)ccc32)CC1 [Example 411-L]	0.82 µM
CCCCNc1c(Br)cnc2c1CCc1cc(Cl)ccc1C2=C1CCN(C(=O)Cc2ccncc2)CC1 [Example 400-M]	0.9 µM
N#Cc1cnc2c(c1)CCc1cc(Cl)ccc1C2=C1CCN(C(=O)Cc2ccncc2)CC1 [Example 406]	1.4 µM
O=C(Cc1ccncc1)N1CCC(=C2c3cc([N+](=O)[O-])c(Cl)cc3CCc3cccnc32)CC1 [Example 411-F]	1.28 µM
COC(=O)N1CCC(CC(=O)N2CCN(C3c4ccc(Cl)cc4CCc4cccnc43)CC2)CC1 (stereo not drawn) [Example 430]	1.3 µM
CN1CCC(CC(=O)N2CCN([C@@H]3c4ccc(Cl)cc4CCc4cccnc43)CC2)CC1 [Example 425-M]	1.8 µM
O=C(Nc1ccccc1)N1CCC(=C2c3ccc(Cl)cc3CCc3c(Cl)ccnc32)CC1 [Example 414-A]	1.9 µM
